# Measurements as given in patent publication US12269793B2, “Affinity illudofulvene conjugates” (AF Chemicals, LLC, priority 2019, dated 2025).
# Read-outs that look alike come from different tables or passages of the source. Where a SMILES comes first, the peptide text is derived from it. [ ]: non-standard residue; d: D form. The star is where a group is joined. Dolaproine = CO[C@@H]([C@@H]1CCCN1)[C@@H](C)C(=O)O; X4 = CC1=C(C*)C2=C(C)C3(CC3)[C@@](C)(O)C(=O)C2=C1; Dil = CC[C@H](C)[C@H](NC)[C@@H](CC(=O)O)OC; X1 = C[C@@H](N*)[C@@H](O)c1ccccc1; NMeV = CN[C@H](C(=O)O)C(C)C
# Columns and labels:
# [1] = test system: MV522 Target Cell Line (lung-derived adenocarcinoma); assay: cells; settings: MV522, 2 h, read-out: Mean IC50 value
# [2] = test system: MV522 Target Cell Line (lung-derived adenocarcinoma); assay: cells; settings: MV522, 48 h, read-out: Mean IC50 value
# [3] = test system: 8392B Nontarget Cell Line (hematopoietic); assay: cells; settings: 2 h
# [4] = test system: 8392B Nontarget Cell Line (hematopoietic); assay: cells; settings: 48 h, read-out: Mean IC50 value
# [5] = test system: NCI 60 cell line panel; assay: NCI DTP 60 cell line screen assay; settings: for GI50: read-out: Mean GI50 inhibition; for Activity Value: NCI 60 cell line screen, negative = lyse tumor cells, zero = no growth, positive = slower growth
# Excerpt: An ADC is engulfed by a tumor cell, transported to the endosomes (pH<6.0) and then into the lysozomes (pH<4). […] 4). Cancer cells can become resistant to various toxins and drugs through the development of what is termed multi-drug resistance. This process is known to occur through several different mechanisms.
# [6] = test system: 8392B Nontarget Cell Line (hematopoietic); settings: read-out: Mean IC50 value, 48 hr exposure, ± SD, N = 3 unless otherwise indicated
# [7] = test system: MV522 Target Cell Line (lung-derived adenocarcinoma); settings: MV522 target and 8392B nontarget cell line, result in words
# [8] = test system: 8392B Nontarget Cell Line (hematopoietic); settings: read-out: Mean IC50 value, 2 hr exposure, ± SD, N = 3 unless otherwise indicated
# [9] = in vitro; settings: human
# Excerpt: MCF7 over express estrogen alpha-receptors.
# MCF7 cells over express estrogen alpha-receptors.
# [10] = read-out: Mean IC50 value, 8392B Nontarget Cell Line, 2 hr exposure, ± SD, N = 3 unless otherwise indicated
smiles,measurement,setting,value
CC1=C([N+](=O)[O-])C2=C(C)C3(CC3)[C@@](C)(O)C(=O)C2=C1 [Analog 012],IC50,[1],5.15 ± 1.35 µM
same,IC50,[2],0.32 ± 0.09 µM
same,IC50,[3]; [10],42.2 ± 5 µM
same,IC50,[4],18.8 ± 2.8 µM
CC[C@H](C)[C@@H]([C@@H](CC(=O)N1CCC[C@H]1[C@H](OC)[C@@H](C)C(=O)N[C@@H](Cc1ccccc1)c1nccs1)OC)N(C)C(=O)[C@@H](NC(=O)[C@H](C(C)C)N(C)C)C(C)C [Dolstatin-10],Mean LD50 cytotoxic,"[5]; NCI DTP 60 cell line, mean",">50,000 nM"
same,Mean TGI cytostatic,"[5]; NCI DTP 60 cell line, mean","2,680 nM"
same,GI50,"[5]; NCI DTP 60 cell line, mean",0.017 µM
CC(=O)N[C@@H](CSCC1=C(C)C=C2C(=O)[C@](C)(O)C3(CC3)C(C)=C21)C(=O)N[C@@H](CC(C)C)C(=O)NCC(=O)N[C@@H](C=O)Cc1ccccc1 [Analog 084] (Ac-C(X4)LG[dF]-aldehyde),IC50,[2],28.2 ± 1.4 µM
same,IC50,[4],> 42 µM
CC1=C(CSC[C@@H](C)C(=O)N2CCC[C@H]2C(=O)O)C2=C(C)C3(CC3)[C@@](C)(O)C(=O)C2=C1 [Analog 098],IC50,[1],18.8 ± 2.5 µM
same,IC50,[2],4.6 ± 0.25 µM
same,IC50,[3]; [10],> 65 µM
same,IC50,[4],11.7 ± 1.8 µM
"CC[C@H](C)[C@@H]([C@@H](CC(=O)N1CCC[C@H]1[C@H](OC)[C@@H](C)C(=O)N[C@H](C)[C@@H](O)c1ccccc1)OC)N(C)C(=O)[C@@H](NC(=O)[C@@H](NC)C(C)C)C(C)C [MMAE, monomethyl auristatin E] (H-[NMeV]V[Dil][Dolaproine]-X1)",Activity Value,[5],+21
same,MDR Activity,[5],No
same,MDR Activity,[5]; listed as MMA,not MDR active
CC(=O)OC[C@]1(C)C=C2C(=O)[C@](C)(O)C3(CC3)C(C)=C2[C@H]1OC(=O)N(C)CCN(C)C(=O)OC(C)(C)C [Analog 334],Activity Value,[5],−11
same,MDR Activity,[5],Yes
CC1=C(CCC2CO2)C2=C(C)C3(CC3)[C@@](C)(O)C(=O)C2=C1 (some centres unmarked) [Analog 114],IC50,[1],1.5 ± 0.1 µM
same,IC50,[2],0.26 ± 0.07 µM
same,IC50,[3]; [10],25.1 ± 1 µM
same,IC50,[4],0.7 ± 0.1 µM
CC1=C(CCC=NN=CCCC2=C(C)C=C3C(=O)[C@@](C)(O)C4(CC4)C(C)=C32)C2=C(C)C3(CC3)[C@@](C)(O)C(=O)C2=C1 [Analog 120],IC50,[1],2.8 ± 0.9 µM
same,IC50,[2],0.6 ± 0.1 µM
same,IC50,[3]; [10],19.1 ± 4.6 µM
same,IC50,[4],0.51 ± 0.11 µM
CC(=O)N[C@@H](CSCC1=C(C)C=C2C(=O)[C@](C)(O)C3(CC3)C(C)=C21)C(=O)N[C@@H](Cc1ccccc1)C(=O)NCC(=O)N[C@H](C=O)CC(C)C [Analog 083] (Ac-C(X4)FGL-aldehyde),IC50,[2],37.2 ± 2.9 µM
same,IC50,[4],> 42 µM
CC1=CC2=C(C)C3(CC3)C(C)(O)C(=NO)C2=C1 (centres unmarked) [Analog 224],IC50,[6],> 130 µM
same,toxicity as monotherapeutic agent,[7],minimal toxicity
same,IC50,[8],> 200 µM
CC(=O)OCCCC1=C(C)C=C2C(=O)[C@](C)(O)C3(CC3)C(C)=C21 [Analog 094],IC50,[1],0.8 ± 0.1 µM
same,IC50,[3]; [10],9 ± 1.7 µM
same,IC50,[4],0.11 ± 0.01 µM
COc1cc2cc(c1Cl)N(C)C(=O)C[C@H](OC(=O)[C@H](C)N(C)C(C)=O)[C@]1(C)O[C@H]1[C@H](C)[C@@H]1C[C@@](O)(NC(=O)O1)[C@H](OC)/C=C/C=C(\C)C2 [Maytansine],GI50,[5]; 60 cell,0.019 µM
same,Mean LD50 cytotoxic,"[5]; NCI DTP 60 cell line, mean","49,200 nM"
CCCCCCCC/C=C/CCCCCCCC(=O)OCC1=C(C)C=C2C(=O)[C@](C)(O)C3(CC3)C(C)=C21 [Analog 226],IC50,[6],> 59 µM
same,IC50,[8],> 59 µM
CC1=C(CO)C2=C(C)C3(CC3)[C@@](C)(O)C(=O)C2=C1 [Analog 002],MDR Activity,[5],Yes
same,Cytotoxicity,[5]; ability to actually kill tumor cells versus only inhibiting growth,Yes
COc1cc2cc(c1Cl)N(C)C(=O)C[C@H](OC(=O)[C@H](C)N(C)C(=O)CCS)[C@]1(C)O[C@H]1[C@H](C)[C@@H]1C[C@@](O)(NC(=O)O1)[C@H](OC)/C=C/C=C(\C)C2 [DM1],Activity Value,[5],+8
CC1=C(CCC(=O)Oc2ccc3c(c2)CCC2C3CC[C@]3(C)C(O)CCC23)C2=C(C)C3(CC3)[C@@](C)(O)C(=O)C2=C1 (some centres unmarked) [Analog 108],IC50,[1],12.3 ± 2.3 µM
same,IC50,[2],0.52 ± 0.05 µM
same,IC50,[9],> 55 µM
same,IC50,[3]; read-out: Mean IC50 value,> 55 µM
CCCCCCCC/C=C/CCCCCCCC(=O)OCCCC1=C(C)C=C2C(=O)[C@](C)(O)C3(CC3)C(C)=C21 [Analog 227],IC50,[8],> 57 µM
CC1=C2C(=C[C@@](C)(C=O)[C@@H]2O)C(=O)[C@](C)(O)C12CC2 [Analog 383],Activity Value,[5],−1
same,MDR Activity,[5],Yes
CC(=O)O[C@@H]1C2=C(C)C3(CC3)[C@@](C)(O)C(=O)C2=C[C@@]1(C)CO [Analog 371],Activity Value,[5],−18
same,MDR Activity,[5],Yes
CC(=O)OCOCC1=C(C)C=C2C(=O)[C@](C)(O)C3(CC3)C(C)=C21 [Analog 008],IC50,[1],0.87 ± 0.09 µM
same,IC50,[2],0.63 ± 0.08 µM
same,IC50,[4],15.1 ± 2.2 µM
